In one data set the test system is Amaranthus retroflexus. The data set can be described thus: greenhouse experiment, pre-emergence treatment. It counts as in vivo. The following applies: 1.0 kg/ha. From the text: (§1) The seeds of the test plants were sown separately for each species. For the pre-emergence treatment, directly after sowing the active compounds, which had been suspended or emulsified in water, were applied by means of finely distributing nozzles. The containers were irrigated gently to promote germination and growth and subsequently covered with transparent plastic hoods until the plant had rooted. This cover caused uniform germination of the test plants, unless this was adversely affected by reactive compounds. The application rate for a pre-emergence treatment was 0.5 or 1.0 kg of a.s. (active substance)/ha. Depending on the species, the plants were kept at 10-25° C. or 20-35° C. The test period extended over 2 to 4 weeks. During this time, the plants were tended, and their response to the individual treatments was evaluated. Evaluation was carried out using a scale from 0 to 100. 100 means no emergence of the plants, or complete destruction of at least the above-ground parts, and 0 means no damage, or normal course of growth. The plants used in the greenhouse experiments were of the following species: [table]

Data set [1] relates to Setaria faberii. The data set can be described thus: greenhouse experiment, pre-emergence treatment. It counts as in vivo.
Text: as §1

The test system of another data set is Pharbitis purpurea. The experiment in a line: greenhouse experiment, post-emergence treatment. It counts as in vivo. From the text:
(§2) The seeds of the test plants were sown separately for each species. For the post-emergence treatment, the test plants were first grown to a height of from 3 to 15 cm, depending on the plant habit, and only then treated with the active compounds which had been suspended or emulsified in water. The test plants were for this purpose either sown directly and grown in the same containers, or they were first grown separately as seedlings and transplanted into the test containers a few days prior to treatment. The application rate for the post-emergence treatment was 0.5 or 1.0 kg of a.s. (active substance)/ha. Depending on the species, the plants were kept at 10-25° C. or 20-35° C. The test period extended over 2 to 4 weeks. During this time, the plants were tended, and their response to the individual treatments was evaluated. Evaluation was carried out using a scale from 0 to 100. 100 means no emergence of the plants, or complete destruction of at least the above-ground parts, and 0 means no damage, or normal course of growth. The plants used in the greenhouse experiments were of the following species: [table]

Data set [2] concerns Setaria faberii. The experiment in a line: greenhouse experiment, post-emergence treatment. The following applies: 1.0 kg/ha. It counts as in vivo.
Text: as §2

The next data set relates to Digitaria sanguinalis. The data set can be described thus: greenhouse experiment, pre-emergence treatment. The format is in vivo.
Text: as §1

With `CCC(CC)/C(N)=C(\C#N)C(=O)OC(C)C` [Example 4.1, Isopropyl (2Z)-3-amino-2-cyano-4-ethyl-2-hexenoate], the “effect on the harmful plant Amaranthus retroflexus” value in the data set on Amaranthus retroflexus is on record as “very good”. The “effect on the harmful plant Setaria faberii” value in the data set on Setaria faberii [1] (1.0 kg/ha) is on record as “very good”. Besides, in the data set with Pharbitis purpurea (1.0 kg/ha), the “post-emergence activity against Pharbitis purpurea” value is listed as “very good”. The “post-emergence activity against Setaria faberii” value in the data set with Setaria faberii [2] is listed as “very good”.

Regarding `CCC(C)OC(=O)/C(C#N)=C(\N)C(CC)CC` (stereo not drawn) [Example 4.2], the “effect on the harmful plant Digitaria sanguinalis” value with Digitaria sanguinalis (0.5 kg/ha) is “very good”. The “effect on the harmful plant Setaria faberii” value in the data set on Setaria faberii [1] (0.5 kg/ha) is reported as “very good”. Besides, the “post-emergence activity against Pharbitis purpurea” value in the data set with Pharbitis purpurea (0.5 kg/ha) was “very good”.

For orientation: melting point means the temperature of the solid-liquid transition. `CCC(CC)/C(N)=C(\C#N)C(=O)OC(C)(C)C` [Example 4.4] had a melting point of 150 °C. In addition, in the data set with Setaria faberii [1] (1.0 kg/ha), the “effect on the harmful plant Setaria faberii” value was “very good”. Besides, the “post-emergence activity against Pharbitis purpurea” value with Pharbitis purpurea (1.0 kg/ha) is “very good”.

For `CCC(CC)/C(N)=C(\C#N)C(=O)OCC(C)C` [Example 4.5], the “effect on the harmful plant Digitaria sanguinalis” value with Digitaria sanguinalis (1.0 kg/ha) was “very good”. Moreover, in the data set with Setaria faberii [1] (1.0 kg/ha), the “effect on the harmful plant Setaria faberii” value is on record as “very good”. The “post-emergence activity against Pharbitis purpurea” value in the data set on Pharbitis purpurea (1.0 kg/ha) is “very good”.

Consider `CCC(CC)/C(N)=C(\C#N)C(=O)OCC(C)(C)C` [Example 4.6], for which, in the data set with Setaria faberii [1] (1.0 kg/ha), the “effect on the harmful plant Setaria faberii” value is “very good”. In addition, the “post-emergence activity against Pharbitis purpurea” value in the data set on Pharbitis purpurea (1.0 kg/ha) is given as “very good”.

Take `CCC(CC)/C(N)=C(\C#N)C(=O)OC(C)C(C)C` (stereo not drawn) [Example 4.7]: the “effect on the harmful plant Setaria faberii” value in the data set on Setaria faberii [1] (1.0 kg/ha) is recorded as “good”. In addition, the “post-emergence activity against Pharbitis purpurea” value with Pharbitis purpurea (1.0 kg/ha) is recorded as “good”.

Molecule `CCC(CC)/C(N)=C(\C#N)C(=O)OC1CCCC1` [Example 4.11] returned a melting point of 140 °C. In addition, the “effect on the harmful plant Setaria faberii” value in the data set on Setaria faberii [1] (1.0 kg/ha) was “very good”. The “post-emergence activity against Pharbitis purpurea” value in the data set on Pharbitis purpurea (1.0 kg/ha) is given as “very good”.

`CCC(CC)/C(N)=C(\C#N)C(=O)OC1CCCCC1` [Example 4.12] displayed a melting point of 154 °C.

With `CCC(CC)/C(N)=C(\C#N)C(=O)OCC1CC1` [Example 4.13], the melting point was determined as 125 °C. Also, the “effect on the harmful plant Digitaria sanguinalis” value with Digitaria sanguinalis (1.0 kg/ha) is reported as “very good”. In the data set with Setaria faberii [1] (1.0 kg/ha), the “effect on the harmful plant Setaria faberii” value was “very good”.

On to `CCC(CC)/C(N)=C(\C#N)C(=O)OC1COC1` [Example 4.14, 3-Oxetanyl (2Z)-3-amino-2-cyano-4-ethyl-2-hexenoat], for which the “effect on the harmful plant Setaria faberii” value with Setaria faberii [1] (1.0 kg/ha) is “very good”.

`C=CC(C)OC(=O)/C(C#N)=C(\N)C(CC)CC` (stereo not drawn) [Example 4.16]: in the data set on Digitaria sanguinalis (1.0 kg/ha), the “effect on the harmful plant Digitaria sanguinalis” value was “very good”. Further, the “effect on the harmful plant Setaria faberii” value with Setaria faberii [1] (1.0 kg/ha) is reported as “very good”.

As to `C#CCOC(=O)/C(C#N)=C(\N)C(CC)CC` [Example 4.19], the “effect on the harmful plant Digitaria sanguinalis” value in the data set on Digitaria sanguinalis (0.5 kg/ha) was “very good”. In addition, the “effect on the harmful plant Setaria faberii” value in the data set on Setaria faberii [1] (0.5 kg/ha) is “very good”.

Regarding `C#CC(C)OC(=O)/C(C#N)=C(\N)C(CC)CC` (stereo not drawn) [Example 4.20], in the data set with Digitaria sanguinalis (1.0 kg/ha), the “effect on the harmful plant Digitaria sanguinalis” value was “very good”. Also, in the data set on Setaria faberii [1] (1.0 kg/ha), the “effect on the harmful plant Setaria faberii” value is on record as “very good”. Also, the “post-emergence activity against Pharbitis purpurea” value with Pharbitis purpurea (1.0 kg/ha) is recorded as “very good”.

`CCC(CC)/C(N)=C(\C#N)C(=O)OCCC(F)(F)F` [Example 4.22]: the “effect on the harmful plant Digitaria sanguinalis” value in the data set on Digitaria sanguinalis (0.5 kg/ha) is listed as “very good”. In addition, in the data set with Setaria faberii [1] (0.5 kg/ha), the “effect on the harmful plant Setaria faberii” value is on record as “very good”.

As for `CCC(CC)/C(N)=C(\C#N)C(=O)OCCCl` [Example 4.23], the “effect on the harmful plant Setaria faberii” value in the data set with Setaria faberii [1] (1.0 kg/ha) is on record as “very good”. For the same molecule, the “post-emergence activity against Pharbitis purpurea” value with Pharbitis purpurea (1.0 kg/ha) is recorded as “very good”.

In turn, `CCC(CC)/C(N)=C(\C#N)C(=O)OCC(F)(F)F` [Example 4.25] came in with a melting point of 115 °C. In addition, the “effect on the harmful plant Setaria faberii” value in the data set with Setaria faberii [1] (1.0 kg/ha) was “very good”.

Regarding `CCC(CC)/C(N)=C(\C#N)C(=O)OCCCCl` [Example 4.29], in the data set with Setaria faberii [1] (1.0 kg/ha), the “effect on the harmful plant Setaria faberii” value was “good”. The “post-emergence activity against Pharbitis purpurea” value with Pharbitis purpurea (1.0 kg/ha) is “very good”.

Take `CCC(CC)/C(N)=C(\C#N)C(=O)OC(C)CCl` (stereo not drawn) [Example 4.30]: the “effect on the harmful plant Digitaria sanguinalis” value in the data set with Digitaria sanguinalis (1.0 kg/ha) is reported as “very good”. Moreover, the “effect on the harmful plant Setaria faberii” value with Setaria faberii [1] (1.0 kg/ha) is on record as “very good”.

Consider `CCC(CC)/C(N)=C(\C#N)C(=O)OC(C)C#N` (stereo not drawn) [Example 4.35], for which, in the data set on Setaria faberii [1] (1.0 kg/ha), the “effect on the harmful plant Setaria faberii” value is reported as “good”.

The molecule `CCC(CC)/C(N)=C(\C#N)C(=O)OC1CCOC1` (stereo not drawn) [Example 4.38] yielded a melting point of 105 to 110 °C.

Consider `CCC(CC)/C(N)=C(\C#N)C(=O)O` [Example 4.42, (2Z)-3-Amino-2-cyano-4-ethyl-2-hexene acid], for which the melting point came out at 165 °C.

`CCC(CC)/C(N)=C(\C#N)C(=O)OC1CCCO1` (stereo not drawn) [Example 4.43] came in with a melting point of 180 °C.

Take `CCC(COC)/C(N)=C(\C#N)C(=O)OC(C)C` (stereo not drawn) [Example 5.2]: the “effect on the harmful plant Setaria faberii” value with Setaria faberii [1] (1.0 kg/ha) was “very good”. Besides, in the data set with Pharbitis purpurea (1.0 kg/ha), the “post-emergence activity against Pharbitis purpurea” value is “very good”.

In the case of `CCCC(CC)/C(N)=C(\C#N)C(=O)OC(C)C` (stereo not drawn) [Example 5.3], the “effect on the harmful plant Setaria faberii” value with Setaria faberii [1] (1.0 kg/ha) is “very good”.

Turning to `CCCC(CCC)/C(N)=C(\C#N)C(=O)OC(C)C` [Example 5.6], the “post-emergence activity against Pharbitis purpurea” value in the data set with Pharbitis purpurea (1.0 kg/ha) was “very good”.

With `C=CCC(CC)/C(N)=C(\C#N)C(=O)OC(C)C` (stereo not drawn) [Example 5.7], the “effect on the harmful plant Digitaria sanguinalis” value in the data set with Digitaria sanguinalis (1.0 kg/ha) is reported as “very good”. Further, the “effect on the harmful plant Setaria faberii” value with Setaria faberii [1] (1.0 kg/ha) is recorded as “very good”. The “post-emergence activity against Pharbitis purpurea” value in the data set on Pharbitis purpurea (1.0 kg/ha) is given as “very good”.

As to `C=CCC(CC=C)/C(N)=C(\C#N)C(=O)OC(C)C` [Example 5.9], the “post-emergence activity against Pharbitis purpurea” value in the data set with Pharbitis purpurea (1.0 kg/ha) is “very good”.

In the case of `C#CCC(CC)/C(N)=C(\C#N)C(=O)OC(C)C` (stereo not drawn) [Example 5.10], the “effect on the harmful plant Setaria faberii” value in the data set on Setaria faberii [1] (1.0 kg/ha) was “very good”.

As for `C#CCC(CC=C)/C(N)=C(\C#N)C(=O)OC(C)C` (stereo not drawn) [Example 5.11], the “post-emergence activity against Pharbitis purpurea” value in the data set with Pharbitis purpurea (1.0 kg/ha) is recorded as “very good”.

The molecule `CCC(CC)/C(N)=C(\C#N)C(N)=O` [Example 6.1] came in with a melting point of 125 °C.

For `CCC(CC)/C(N)=C(\C#N)C(=O)NC` [Example 6.2], the melting point came to 146 °C.

On to `CCNC(=O)/C(C#N)=C(\N)C(CC)CC` [Example 6.3], for which the melting point is 104 to 106 °C. Besides, the “effect on the harmful plant Setaria faberii” value in the data set with Setaria faberii [1] (1.0 kg/ha) is “very good”. Besides, the “post-emergence activity against Pharbitis purpurea” value with Pharbitis purpurea (1.0 kg/ha) is “very good”.

`CCC(CC)/C(N)=C(\C#N)C(=O)NC(C)C` [Example 6.5] yielded a melting point of 164 °C.

As for `CCC(CC)/C(N)=C(\C#N)C(=O)N(C)C` [Example 6.21], the melting point was 132 °C.

`CCNC(=O)/C(C#N)=C(\N)C(CC)CC` [Example 6.29] gave a melting point of 124 °C.

Take `CCC(CC)/C(N)=C(\C#N)C(=O)SC(C)C` [Example 7.3]: the melting point stood at 115 °C. In addition, the “post-emergence activity against Pharbitis purpurea” value in the data set on Pharbitis purpurea (1.0 kg/ha) is “very good”.

Values taken from US20050009706A1, “Alpha-cyanoacrylates” (priority 2001, published 2005).
